Laboratory results reported in patent publication US20260226128A1, “Capped Peptides and Methods for Using the Same” (The Board of Trustees of the Leland Stanford Junior …, priority 2023, published 2026).

Test system: diet induced obese mice
Assay: Food intake 2 hours post injection of CAP-GDF15 human homologue
Type: in vivo, mouse
Conditions: 50 mg/kg, single injection, versus vehicle
Protocol: FIG. 12. Human CAP-GDF15 homologue inhibits food intake. Food intake of diet induced obese mice 2 hours post injection with vehicle or 50 mg/kg CAP-GDF15 human homologue (pGlu-[…]-NH2). (N=8 mice/group, error bars are SEM, and P values calculated with two-sided Student's T test.)
Human CAP-GDF15 treatments in mice. Singly housed diet induced obese (on high fat diet, 4 months old, male, C57BL/6J, Jackson cat #380050) mice were injected with vehicle (18:1:1 Saline: DMSO: Kolliphor EL) or 50 mg/kg CAP-GDF15 human homologue (pGlu-[…]-NH2) once at ~5 μm. Food weight was measured before injection and 2 hours post to calculated food intake. (N=8 mice/group)

**Q.** With “pGlu-LELHLRPQAAR-NH2 (HELM PEPTIDE1{[Glp].L.E.L.H.L.R.P.Q.A.A.R.[am]}$$$$V2.0; SMILES CC(C)C[C@H](NC(=O)[C@@H]1CCC(=O)N1)C(=O)N[C@@H](CCC(=O)O)C(=O)N[C@@H](CC(C)C)C(=O)N[C@@H](Cc1c[nH]cn1)C(=O)N[C@@H](CC(C)C)C(=O)N[C@@H](CCCNC(=N)N)C(=O)N1CCC[C@H]1C(=O)N[C@@H](CCC(N)=O)C(=O)N[C@@H](C)C(=O)N[C@@H](C)C(=O)N[C@@H](CCCNC(=N)N)C(N)=O) [human homologue of CAP-GDF15]” as the substance, how does the “food intake 2 hours post injection” value read?
**A.** acutely inhibits food intake
